Data from patent US11981661B2, “Heterocyclic compounds” (Hoffmann-La Roche Inc., priority 2020, dated 2024).

Each molecule was assayed against T1, MAGL (Homo sapiens, UniProt Q99685) (assay: 2-AG assay (MAGL inhibitory activity, hydrolysis of 2-arachidonoylglycerol followed by mass spectrometry)). Conditions: 50 pM MAGL, 8 μM 2-arachidonoylglycerol, 15 min preincubation, 30 min incubation at RT, concentration range 12.5 μM to 0.8 pM.
T1 sequence (Q99685 1-303): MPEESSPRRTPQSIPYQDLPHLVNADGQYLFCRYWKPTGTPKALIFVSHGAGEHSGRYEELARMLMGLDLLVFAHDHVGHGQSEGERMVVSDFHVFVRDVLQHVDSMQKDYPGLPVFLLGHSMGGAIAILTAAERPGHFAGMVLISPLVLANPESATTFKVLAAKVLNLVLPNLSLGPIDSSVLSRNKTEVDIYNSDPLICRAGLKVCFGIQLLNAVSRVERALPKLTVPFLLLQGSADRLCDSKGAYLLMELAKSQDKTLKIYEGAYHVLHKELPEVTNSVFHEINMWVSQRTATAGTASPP
Format: biochemical
Summary of the method: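 Activity derived from the arachidonic acid/d8-arachidonic acid MS intensity ratio after acetonitrile quench. Reaction: 8 μM 2-AG substrate with 50 pM MAGL, 30 min at RT, following 15 min RT compound preincubation; buffer 50 mM TRIS, 1 mM EDTA, 0.01% Tween; final compound range 12.5 μM to 0.8 pM.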
Work on O=C1N[C@H](CCC(=O)N2CC(c3cnc(C4(C(F)(F)F)CC4)nc3)C2)CO1 [Example 101, (4R)-4-[3-Oxo-3-(3-[2-[1-(trifluoro-methyl)cyclopropyl]pyrimidin-5-yl]azetidin-1-yl]propyl]oxazolidin-2-one] yielded an IC50 of 481 nM. O=C1N[C@H](CCC(=O)N2CC(c3ccc(C4(C(F)(F)F)CC4)nc3)C2)CO1 [Example 102, (4R)-4-[3-Oxo-3-[3-[6-[1-(trifluoro-methyl)cyclopropyl]-3-pyridyl]azetidin-1-yl]propyl]oxazolidin-2-one] showed an IC50 of 420 nM. In the case of O=C1N[C@H](CCC(=O)N2CC(c3ccc(N4CCC(C(F)(F)F)C4)cn3)C2)CO1 (stereo partly drawn) [Example 103, (4R)-4-[3-Oxo-3-[3-[5-[3-(trifluoro-methyl)pyrrolidin-1-yl]-2-pyridyl]azetidin-1-yl]propyl]oxazolidin-2-one], the IC50 is reported as 54 nM. For CS(=O)(=O)CC1CN(c2ccc(C3CN(C(=O)CC[C@@H]4COC(=O)N4)C3)cc2)C1 [Example 104, (4R)-4-[3-[3-[4-[3-(Methyl-sulfonylmethyl)azetidin-1-yl]phenyl]azetidin-1-yl]-3-oxo-propyl]oxazolidin-2-one], the IC50 was 177 nM. O=C1N[C@H](CCC(=O)N2CC(c3cnc(N4CCC(C(F)(F)F)C4)cn3)C2)CO1 (stereo partly drawn) [Example 105, (4R)-4-[3-Oxo-3-[3-[5-[3-(trifluoro-methyl)pyrrolidin-1-yl]pyrazin-2-yl]azetidin-1-yl]propyl] oxazolidin-2-one] showed an IC50 of 43 nM. O=C1N[C@H](CCC(=O)N2CC(c3ncc(N4CCC(C(F)(F)F)C4)cn3)C2)CO1 (stereo partly drawn) [Example 106, (4R)-4-[3-Oxo-3-[3-[5-[3-(trifluoro-methyl)pyrrolidin-1-yl]pyrimidin-2-yl]azetidin-1-yl]propyl]oxazolidin-2-one] was tested, and the IC50 was 729 nM. Work on O=C1N[C@H](CCC(=O)N2CC(c3cnc(N4CCC(C(F)(F)F)C4)nc3)C2)CO1 (stereo partly drawn) [Example 107, (4R)-[3-Oxo-3-[3-[2-[3-(trifluoro-methyl)pyrrolidin-1-yl]pyrimidin-5-yl]azetidin-1-yl]propyl]oxazolidin-2-one] yielded an IC50 of 216 nM. Molecule CS(=O)(=O)c1ccc(-c2ccc(C3CN(C(=O)CC[C@@H]4COC(=O)N4)C3)nc2)c(Cl)c1 [Example 108, (4R)-4-[3-[3-[5-(2-Chloro-4-methylsulfonyl-phenyl)-2-pyridyl]azetidin-1-yl]-3-oxo-propyl]oxazolidin-2-one] has an IC50 of 7 nM. Work on O=C1N[C@H](CCC(=O)N2CC(c3cccc(C4(C(F)(F)F)CC4)c3)C2)CO1 [Example 109, (4R)-4-[3-Oxo-3-[3-[3-[1-(trifluoromethyl)cyclopropyl]phenyl]azetidin-1-yl]propyl]oxazolidin-2-one] yielded an IC50 of 39 nM. For CS(=O)(=O)c1ccc(-c2cnc(C3CN(C(=O)CC[C@@H]4COC(=O)N4)C3)cn2)c(Cl)c1 [Example 110, (4R)-4-[3-[3-[5-(2-Chloro-4-methylsulfonyl-phenyl)pyrazin-2-yl]azetidin-1-yl]-3-oxo-propyl]oxazolidin-2-one], the IC50 was 70 nM. Work on CC(C)(C)S(=O)(=O)c1ccc(C2CN(C(=O)CC[C@@H]3COC(=O)N3)C2)cn1 [Example 111, (4R)-4-[3-[3-(6-tert-Butylsulfonyl-3-pyridyl)azetidin-1-yl]-3-oxo-propyl]oxazolidin-2-one] yielded an IC50 of 1170 nM. For O=C1N[C@H](CCC(=O)N2CC(c3ncc(-c4ccc(Cl)cc4F)cn3)C2)CO1 [Example 112, (4R)-4-[3-[3-[5-(4-Chloro-2-fluoro-phenyl)pyrimidin-2-yl]azetidin-1-yl]-3-oxo-propyl]oxazolidin-2-one], the IC50 was 43 nM. With O=C1N[C@H](CCC(=O)N2CC(c3ccc(-c4ccc(Cl)cc4F)cn3)C2)CO1 [Example 113, (4R)-4-[3-[3-[5-(4-Chloro-2-fluoro-phenyl)-2-pyridyl]azetidin-1-yl]-3-oxo-propyl]oxazolidin-2-one] the IC50 was 3 nM. For O=C1N[C@H](CCC(=O)N2CC(c3ccc(-c4ccc(Cl)cc4Cl)cn3)C2)CO1 [Example 114, (4R)-4-[3-[3-[5-(2,4-Dichloro-phenyl)-2-pyridyl]azetidin-1-yl]-3-oxo-propyl]oxazolidin-2-one], the IC50 was 0.18 nM. Work on CS(=O)(=O)c1cc(Cl)cnc1-c1ccc(C2CN(C(=O)CC[C@@H]3COC(=O)N3)C2)cc1 [Example 115, (4R)-4-[3-[3-[4-(5-Chloro-3-methylsulfonyl-2-pyridyl)phenyl]azetidin-1-yl]-3-oxo-propyl]oxazolidin-2-one] yielded an IC50 of 3 nM. CS(=O)(=O)c1ccc(-c2ccc(C3CN(C(=O)CC[C@@H]4COC(=O)N4)C3)cn2)c(Cl)c1 [Example 116, (4R)-4-[3-[3-[6-(2-Chloro-4-methylsulfonyl-phenyl)-3-pyridyl]azetidin-1-yl]-3-oxo-propyl]oxazolidin-2-one] gave an IC50 of 160 nM. For CS(=O)(=O)c1cc(Cl)ccc1-c1ccc(C2CN(C(=O)CC[C@@H]3COC(=O)N3)C2)cn1 [Example 117, (4R)-4-[3-[3-[6-(4-Chloro-2-methylsulfonyl-phenyl)-3-pyridyl]azetidin-1-yl]-3-oxo-propyl]oxazolidin-2-one], the IC50 was 10 nM. With CS(=O)(=O)c1cc(Cl)ncc1-c1ccc(C2CN(C(=O)CC[C@@H]3COC(=O)N3)C2)cc1 [Example 118, (4R)-4-[3-[3-[4-(6-Chloro-4-methylsulfonyl-3-pyridyl)phenyl]azetidin-1-yl]-3-oxo-propyl] oxazolidin-2-one] the IC50 was 12 nM. With O=C1N[C@H](CCC(=O)N2CC(c3ccc(-c4cnc(C(F)(F)F)cn4)cc3)C2)CO1 [Example 119, (4R)-4-[3-Oxo-3-[3-[4-[5-(trifluoromethyl)pyrazin-2-yl]phenyl]azetidin-1-yl]propyl] oxazolidin-2-one] the IC50 was 33 nM. Work on CS(=O)(=O)c1cc(C2CN(C(=O)CC[C@@H]3COC(=O)N3)C2)ccc1-c1ccc(Cl)cc1F [Example 120, (4R)-4-[3-[3-[4-(4-Chloro-2-fluoro-phenyl)-3-methylsulfonyl-phenyl]azetidin-1-yl]-3-oxo-propyl]oxazolidin-2-one] yielded an IC50 of 19 nM. In the case of CS(=O)(=O)c1cc(Cl)ccc1-c1ccc(C2CN(C(=O)CC[C@@H]3COC(=O)N3)C2)nc1 [Example 121, (4R)-4-[3-[3-[5-(4-Chloro-2-methylsulfonyl-phenyl)-2-pyridyl]azetidin-1-yl]-3-oxo-propyl]oxazolidin-2-one], the IC50 is reported as 2 nM. In the case of CS(=O)(=O)c1ccc(-c2cnc(C3CN(C(=O)CC[C@@H]4COC(=O)N4)C3)nc2)c(Cl)c1 [Example 122, (4R)-4-[3-[3-[5-(2-Chloro-4-methylsulfonyl-phenyl)pyrimidin-2-yl]azetidin-1-yl]-3-oxo-propyl] oxazolidin-2-one], the IC50 is reported as 379 nM. CS(=O)(=O)c1ccc(-c2ncc(C3CN(C(=O)CC[C@@H]4COC(=O)N4)C3)cn2)c(Cl)c1 [Example 123, (4R)-4-[3-[3-[2-(2-Chloro-4-methylsulfonyl-phenyl)pyrimidin-5-yl]azetidin-1-yl]-3-oxo-propyl] oxazolidin-2-one] showed an IC50 of 982 nM. CS(=O)(=O)c1ncc(C(F)(F)F)cc1-c1ccc(C2CN(C(=O)CC[C@@H]3COC(=O)N3)C2)cc1 [Example 124, (4R)-4-[3-[3-[4-[2-Methyl-sulfonyl-5-(trifluoromethyl)-3-pyridyl]phenyl]azetidin-1-yl]-3-oxo-propyl] oxazolidin-2-one] gave an IC50 of 3 nM. Work on O=C1N[C@H](CCC(=O)N2CC3(CC(Cc4ccc(C(F)(F)F)nc4)C3)C2)CO1 [Example 125, (4R)-4-[3-Oxo-3-[6-[[6-(trifluoro-methyl)-3-pyridyl]methyl]-2-azaspiro[3.3]heptan-2-yl]propyl] oxazolidin-2-one] yielded an IC50 of 9 nM. O=C1N[C@H](CCC(=O)N2CC3(CCN(Cc4ccc(C(F)(F)F)cc4F)CC3)C2)CO1 [Example 126, (4R)-4-[3-[7-[[2-Fluoro-4-(trifluoro-methyl)phenyl]methyl]-2,7-diazaspiro[3.5]nonan-2-yl]-3-oxo-propyl] oxazolidin-2-one] gave an IC50 of 25 nM. With O=C1N[C@H](CCC(=O)N2CC(c3ccc(Oc4nccc(C(F)(F)F)n4)cc3)C2)CO1 [Example 127, (4R)-4-[3-Oxo-3-[3-[4-[4-(trifluoro-methyl)pyrimidin-2-yl]oxyphenyl]azetidin-1-yl]propyl]oxazolidin-2-one] the IC50 was 1800 nM. Work on CS(=O)(=O)c1ccc(-c2ccc(C3CN(C(=O)CC[C@@H]4COC(=O)N4)C3)cc2)c(C(F)(F)F)c1 [Example 128, (4R)-4-[3-[3-[4-[4-Methyl-sulfonyl-2-(trifluoromethyl)phenyl]phenyl]azetidin-1-yl]-3-oxo-propyl] oxazolidin-2-one] yielded an IC50 of 0.26 nM. O=C1N[C@H](CCC(=O)N2CC(c3ccc(N4CCC(C(F)(F)F)C4)c(F)c3)C2)CO1 (stereo partly drawn) [Example 129, (4R)-4-[3-[3-[3-Fluoro-4-[3-(trifluoromethyl)pyrrolidin-1-yl]phenyl]azetidin-1-yl]-3-oxo-propyl]oxazolidin-2-one] showed an IC50 of 3 nM. Molecule O=C1N[C@H](CCC(=O)N2CC(c3ccc(C4CCS(=O)(=O)C4)cc3)C2)CO1 (stereo partly drawn) [Example 130, (4R)-4-[3-[3-[4-(1,1-Dioxothiolan-3-yl)phenyl]azetidin-1-yl]-3-oxo-propyl] oxazolidin-2-one] has an IC50 of 251 nM. O=C1N[C@H](CCC(=O)N2CC(c3ccc(N4CC5(CCCC5)C4)cc3)C2)CO1 [Example 131] gave an IC50 of 1 nM. For O=C1N[C@H](CCC(=O)N2CC(c3ccc(N4CC5(C4)CC(F)(F)C5)cc3)C2)CO1 [Example 132, (4R)-4-[3-[3-[4-(6,6-Difluoro-2-azaspiro[3.3]heptan-2-yl)phenyl]azetidin-1-yl]-3-oxo-propyl]oxazolidin-2-one], the IC50 was 9 nM.
